Laboratory results as given in patent US20100004131A1, “SOLID FORMULATIONS OF HYDROGEN CYANAMIDE FOR AGRICULTURAL APPLICATIONS” (Metbro Distributing, L.P., priority 2007, published 2010).

Assays:
Format in all cases: in vivo
Settings in all cases: applied in granular form; pre-plant and final test results collectively
[1] = tested on: microbivorous (beneficial) nematodes; experiment: Nematicidal activity of granules in infested silt loam pots: microbivorous nematodes
Procedure: (§1) The soil used in this study was naturally infested with three species of nematodes, one of which was deleterious, and the other two beneficial, and observations were made of both the survival of the nematodes and the growth of the soybean plants.
(§2) The hydrogen cyanamide granules were prepared by impregnating PROFILE granules (15 mesh) with DORMEX (50% hydrogen cyanamide in aqueous solution with phosphate buffer), and drying the moist granules on trays at 20° C. for 24 hours to achieve granules containing hydrogen cyanamide at a concentration of 25% by weight. Planting pots measuring 10 cm in diameter were used. Each pot contained 1 kg of silt loam from a cotton field, pH 6.2, CEC<10 meq/100 g soil, organic matter<1.0%, the soil being severely infested with the deleterious reniform nematode (Rotylenchulus reniformis). […]
(§3) After the polyethylene bags were removed, each pot was planted with Hutcheson soybean seeds at 5 seeds per pot, and the seeds were allowed to germinate and the plants to grow for 39 days. […] The number of surviving nematodes in each pot were determined, as were the number of nematodes in the root systems, the weights of both the fresh shoots and the roots, and the shoot height. […] Fischer's Least Significant Difference at p 0.05 was calculated when appropriate. […]

[2] = tested on: reniform nematode (Rotylenchulus reniformis); experiment: Nematicidal activity of granules in infested silt loam pots: reniform nematodes
Procedure: as §1, §2, §3

Dorylaimida nematodes = experiment: Nematicidal activity of granules in infested silt loam pots: Dorylaimida nematodes
Procedure: as §1, §2, §3

## N#CN [hydrogen cyanamide]
[1]
  populations of the microbivorous nematodes: not significantly affected
[2]
  nematicidal activity against the reniform nematodes: without loss of nematicidal activity
Dorylaimida nematodes
  populations of the Dorylaimida nematodes: affected
